Test results published in patent US20090028943A1, “PHARMACEUTICAL COMPOSITIONS” (priority 2005, published 2009).

Experiments:
[1] = tested on: VEGF-stimulated endothelial cell proliferation (HUVEC); experiment: HUVEC assay, VEGF-stimulated proliferation; type: cell-based; details: Homo sapiens
[2] = tested on: basal endothelial cell proliferation (HUVEC); experiment: HUVEC assay, basal proliferation; type: cell-based; details: Homo sapiens
[3] = tested on: Calu-6 tumour xenograft; experiment: in vivo solid tumour model; details: once-daily oral, 28 days
[4] = stability of AZD2171 (hydrolysis, oxidation); type: physicochemical
Source text: In order to counteract the plasticity of a drug such as AZD2171 a person skilled in the art would typically try to modify the material's properties with the addition of a complementary excipient such as a brittle filler. However this can limit the drug loading that can be achieved in a formulation, i.e. the percentage of active ingredient therein, and can lead to very large tablets which are difficult to swallow. […] Initial test formulations of AZD2171 were therefore limited to the use of two […] fillers namely lactose and mannitol. The test formulations comprised: […]

[5] = tested on: range of models; details: once-daily oral administration; cited from earlier work

COc1cc2c(Oc3ccc4[nH]c(C)cc4c3F)ncnc2cc1OCCCN1CCCC1 [AZD2171, 4-(4-fluoro-2-methyl-1H-indol-5-yloxy)-6-methoxy-7-(3-(pyrrolidin-1-yl)propoxy)quinazoline]
IC50 [1]: 0.4 ± 0.2 nM
IC50 [2]: > 500 nM
inhibition of growth of Calu-6 tumour xenograft ([3]; 1.5 mg/kg/day): 49%
inhibition of growth of Calu-6 tumour xenograft ([3]; 3 mg/kg/day): 69%
inhibition of growth of Calu-6 tumour xenograft ([3]; 6 mg/kg/day): 91%
compatibility with brittle filler dibasic calcium phosphate dihydrate [4]: showed hydrolysis
stability ([4]; degradation by hydrolysis and oxidation): relatively poor stability
anti-tumour activity in a range of models [5]: broad-spectrum anti-tumour activity
